Literature values, collected in patent publication US9199026B2, “Modular extracorporeal systems and methods for treating blood-borne diseases” (SOMERSET GROUP ENTERPRISES, INC., priority 2011, dated 2015).

Tests used:
Listeria = details: carbonation volume about 2, about 35° C., pressure up to about 350 MPa, about 300 seconds
pathogen = details: pH 6.0 compared to pH 7.4
[1] = at acidic pH
MRSA = details: raised oxygen levels
S. aureus = details: basic vs slightly acidic pH

O=C=O [CO2, Carbon dioxide]
effect on inactivation of Listeria (Listeria): enhanced the inactivation of Listeria

N#Cc1c(N2C[C@@H]3NCCO[C@H]3C2)c(F)cc2c(=O)c(C(=O)O)cn(C3CC3)c12 [Finafloxacin, finafloxacin]
increase in activity (lowering of the MIC) (pathogen): 4- to 8 fold

Nc1nc(-n2cc(C(=O)O)c(=O)c3cc(F)c(N4CC(O)C4)c(Cl)c32)c(F)cc1F [delafloxacin]
fraction under a neutral form [1]: 50%

CN[C@H](CC(C)C)C(=O)N[C@H]1C(=O)N[C@@H](CC(N)=O)C(=O)N[C@H]2C(=O)N[C@H]3C(=O)N[C@H](C(=O)N[C@H](C(=O)O)c4cc(O)cc(O)c4-c4cc3ccc4O)[C@H](O)c3ccc(c(Cl)c3)Oc3cc2cc(c3O[C@@H]2O[C@H](CO)[C@@H](O)[C@H](O)[C@H]2O[C@H]2C[C@](C)(N)[C@H](O)[C@H](C)O2)Oc2ccc(cc2Cl)[C@H]1O [vancomycin]
effect of raising oxygen levels on resistance of MRSA (MRSA): decreases the resistance of MRSA to vancomycin
killing S. aureus, basic versus slightly acidic conditions (S. aureus): killing S. aureus under basic conditions better than under slightly acidic conditions
